Data: patent US20070149576A1, “Means for protecting against technical materials” (priority 2003, published 2007)

Assays:
[1] = tested on: Hylotrupes bajulus (house longhorn beetle); assay: EN 46 determination of the prophylactic effect on egg larvae of Hylotrupes bajulus (laboratory test); assay type: in vivo; settings: for activity threshold against wood-destroying beetles, EN 46 (with EN 84): after EN 84 leaching stress
[2] = tested on: Reticulitermes santonensis (termite); assay: EN 117 determination of the activity threshold against Reticulitermes santonensis (laboratory test); assay type: in vivo; settings: for activity threshold against termites, EN 117 (with EN 84): after EN 84 leaching stress

| Compound | activity threshold against wood-destroying beetles, EN 46 (with EN 84) [1] | activity threshold against wood-destroying beetles, EN 46 (without stress) [1] | activity threshold against termites, EN 117 (with EN 84) [2] | activity threshold against termites, EN 117 (without stress) ([2]; without stress) |
| --- | --- | --- | --- | --- |
| CC1(C)C(C=C(Cl)Cl)C1C(=O)OC(C#N)c1ccc(F)c(Oc2ccccc2)c1 (stereo not shown) [cyfluthrin] | <0.006 g/m^2 | <0.006 g/m^2 | 10-20 g/m^3 | – |
| CCOC(=O)NCCOc1ccc(Oc2ccccc2)cc1 [fenoxycarb] | 0.050 g/m^2 | 0.005 g/m^2 | ineffective | ineffective |
